{
  "source": "patent US9073863B2",
  "about": "“Cyanoquinoline compounds having activity in correcting mutant-CFTR processing and increasing ion transport and uses thereof” (The Regents of the University of California, priority 2011, dated 2015)",
  "biological_target": "T1, ΔF508-CFTR (Homo sapiens, UniProt P13569, DEL508-508)",
  "T1 construct": "expressed in transfected cells; host or cells: Fischer rat thyroid (FRT) epithelial cells, stably transfected",
  "T1 sequence (P13569 with tags, fused parts or gaps DEL508-508)": "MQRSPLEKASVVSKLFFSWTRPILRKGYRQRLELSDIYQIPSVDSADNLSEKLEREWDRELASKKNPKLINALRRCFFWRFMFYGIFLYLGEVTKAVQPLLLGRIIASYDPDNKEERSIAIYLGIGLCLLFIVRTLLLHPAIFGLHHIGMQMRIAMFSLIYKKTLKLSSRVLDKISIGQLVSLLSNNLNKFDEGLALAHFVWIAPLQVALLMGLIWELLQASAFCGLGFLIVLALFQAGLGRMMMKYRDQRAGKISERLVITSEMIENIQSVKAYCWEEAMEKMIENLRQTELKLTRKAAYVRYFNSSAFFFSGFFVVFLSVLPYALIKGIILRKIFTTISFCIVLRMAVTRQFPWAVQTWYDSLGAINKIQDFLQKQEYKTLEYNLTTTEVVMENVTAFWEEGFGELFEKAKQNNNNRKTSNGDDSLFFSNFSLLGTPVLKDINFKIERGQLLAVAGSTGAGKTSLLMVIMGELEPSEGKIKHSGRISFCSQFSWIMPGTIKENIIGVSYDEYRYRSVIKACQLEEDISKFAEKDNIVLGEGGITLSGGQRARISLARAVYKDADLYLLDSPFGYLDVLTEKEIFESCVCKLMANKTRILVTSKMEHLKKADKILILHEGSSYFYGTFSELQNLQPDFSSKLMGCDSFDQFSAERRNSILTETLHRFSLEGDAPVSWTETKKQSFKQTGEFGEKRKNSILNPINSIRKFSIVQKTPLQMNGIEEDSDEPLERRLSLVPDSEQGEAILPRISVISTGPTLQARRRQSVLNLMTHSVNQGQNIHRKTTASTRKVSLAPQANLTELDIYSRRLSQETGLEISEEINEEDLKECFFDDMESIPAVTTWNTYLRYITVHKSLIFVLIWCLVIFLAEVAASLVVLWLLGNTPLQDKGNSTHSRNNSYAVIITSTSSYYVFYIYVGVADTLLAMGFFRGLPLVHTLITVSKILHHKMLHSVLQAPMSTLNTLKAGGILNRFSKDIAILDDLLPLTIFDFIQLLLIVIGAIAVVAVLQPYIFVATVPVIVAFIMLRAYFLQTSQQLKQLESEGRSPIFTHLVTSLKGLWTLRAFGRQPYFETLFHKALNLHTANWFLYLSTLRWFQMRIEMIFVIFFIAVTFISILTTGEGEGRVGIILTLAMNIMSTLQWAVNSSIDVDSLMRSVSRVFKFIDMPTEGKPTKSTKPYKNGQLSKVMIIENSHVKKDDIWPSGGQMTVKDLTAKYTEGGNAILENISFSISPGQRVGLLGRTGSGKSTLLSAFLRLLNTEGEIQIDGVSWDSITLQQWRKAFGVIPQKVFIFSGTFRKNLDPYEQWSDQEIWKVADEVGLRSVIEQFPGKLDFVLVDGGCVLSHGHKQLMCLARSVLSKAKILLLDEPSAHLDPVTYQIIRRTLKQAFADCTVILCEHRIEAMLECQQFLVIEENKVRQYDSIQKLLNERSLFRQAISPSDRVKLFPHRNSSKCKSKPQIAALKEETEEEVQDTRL",
  "assay": "Corrector assay, YFP fluorescence plate reader iodide influx in ΔF508-CFTR expressing FRT cells",
  "assay_type": "cell-based",
  "outline": "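Corrector mode: cells treated 18–24 h at 37 °C with compound (25 μM screen, 0–25 μM dose-response), then 10 min forskolin 20 μM + genistein 50 μM. Potentiator mode: 27 °C-rescued cells given forskolin 20 μM + compound (0–25 or 0–50 μM) for 10 min. Initial iodide influx rate from exponential fit of YFP quenching, normalized to background-subtracted initial fluorescence.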",
  "data": [
    {"smiles": "COc1cccc(C(=O)NCCNc2nc3cc(C)cc(C)c3cc2C#N)c1", "note": "[Compound 22, N-(2-((3-Cyano-5,7-dimethylquinolin-2-yl)amino)ethyl)-3-methoxybenzamide]", "values": [
      {"measurement": "iodide influx after incubation at 27° C.", "setting": "Compound 22 (20 µM) or Corr-4a (10 µM), 24 h, 27° C., vs low-temperature rescue control", "value": "substantially increased iodide influx"},
      {"measurement": "iodide influx after incubation at 37° C.", "setting": "Compound 22 (20 µM) or Corr-4a (10 µM), 24 h, 37° C., with genistein", "value": "increased iodide influx"},
      {"measurement": "corrector and potentiator activities, in words", "setting": "concentration-dependence in corrector and potentiator I− influx assays (FIG. 2, FIG. 7)", "value": "both corrector and potentiator activities"},
      {"measurement": "additivity of corrector action with Corr-4a (iodide influx)", "setting": "maximal concentrations of Compound 22 and Corr-4a, alone or in combination", "value": "significant additivity"}
    ]}
  ]
}
